One series deals with bronchial mucus. Briefly: test of activity in the rabbit: production/secretion of bronchial mucus (tracheal cannula, technique of Scuri et al.). Type of series: in vivo. The conditions noted are these: for variation % of secretion of mucus with respect to controls: intravenous, 10 mg/kg, 4 hours following vs 4 hours preceding treatment, versus physiological solution controls. Here is the method: Rabbits were used weighing about 3 kg with a cannula implanted in the trachea according to the technique of Scuri et al., Boll. Chim. Farm., 119,(3), 1980. The quantity of mucus produced and excreted was recorded during the 4 hours preceding and the 4 hours following the treatment.

Series [1] deals with damage provoked by the action of sulfur dioxide on the bronchi. Briefly: test of mucolytic activity based on the inhalation of SO2 in the rat. The class given is in vivo. An excerpt:
In the test of mucolytic activity based on the inhalation of SO2 in the rat, the compounds of the present invention have shown a good mucolytic activity.

Series [2] can be described thus: acute toxicity in the mouse. To be noted: in vivo.
Series [3] can be described thus: acute toxicity in the rat. To be noted: in vivo.
Series [4] in a line: toxicity, overall statement. The class given is in vivo. To be noted: in words.
The mark [5] stands for this setting: intravenous, read-out: LD50 i.v.

The LD50 is the dose expected to kill half of the subjects tested. For `O=C(O)CSCC(=O)NC1CCSC1=O` (stereo not shown) [PV 144, [(2-oxo-3-tetrahydrothienylcarbamoyl)-methylthio]acetic acid], the “activity compared with reference product carbocysteine (mucus secretion)” value in the series with bronchial mucus (i.v., same dose by weight (10 mg/kg)) is given as “at least as active as the reference product”. Moreover, in the series on bronchial mucus, the “variation % of secretion of mucus with respect to controls” value was 52.1%. In series [1] (PV 144 oral 500 mg/kg vs carbocysteine 500 mg/kg (3.35 mmol/kg)), the “regression of bronchial damage compared with carbocysteine” value was “qualitatively and quantitatively equal”. Moreover, in series [1] (oral, 500 mg/kg (2 mmol/kg)), the “regression of the damage provoked by sulfur dioxide on the bronchi” value is reported as “significant regression of the damage”. Also, the median lethal dose (LD50) was above 3500 mg/kg in series [2] (setting [5]); above 10000 mg/kg in series [2] (oral, read-out: LD50 oral); above 3500 mg/kg in series [3] (setting [5]); above 10000 mg/kg in series [3] (oral, read-out: LD50 oral). The toxicity entry in series [4] is given as “virtually without toxicity”.
Regarding `N[C@@H](CSCC(=O)O)C(=O)O` [carbocysteine, S-carboxymethylcysteine, reference compound], the “variation % of secretion of mucus with respect to controls” value in the series on bronchial mucus is 51.8%.

The record behind these values is patent US4411909A, “[(2-Oxo-3-tetrahydrothienylcarbamoyl)-alkylthio] acetic acids, their salts and esters, a process for preparation thereof and the pharmaceutical compositions containing same” (priority 1981, dated 1983).
